Laboratory results from patent US20260174769A1, “MACROCYCLIC COMPOUNDS AND METHODS OF USE” (AMGEN INC., priority 2022, published 2026).
Where a name gives a salt, the structure may show the parent alone.

molecular target: His-tagged KRAS G12D protein (Homo sapiens, UniProt P01116, G12D); assay: KRAS G12D TR-FRET Assay; type: binding; conditions: TR-FRET binding
Method: The His-tagged KRAS G12D protein (Amgen) was diluted to 20 nM in Assay Buffer (20 mM HEPES, pH 7.4, 10 mM MgCl2, 50 mM NaCl, 0.1% BSA, 0.01% Tween-20, 10 μM GDP) and 2 μL was added to the appropriate wells of the 384-well plate. The plate was incubated for 30 minutes at room temperature. Biotinylated KRPep-2d substrate (Amgen) was diluted to 20 nM in Assay Buffer and 2 μL was added to all wells and incubated for 1 hour at room temperature. Detection Reagent (0.4 nM LANCE Eu-W1024 Anti-6×His (Perkin Elmer AD0401), 5 nM streptavidin-d2 (Cisbio 610SADLA)) was prepared in Assay Buffer, then 4 μL was added to the plate and incubated for 1 hour at room temperature.

Sequence of His-tagged KRAS G12D protein (P01116 1-188 isoform P01116-2 G12D): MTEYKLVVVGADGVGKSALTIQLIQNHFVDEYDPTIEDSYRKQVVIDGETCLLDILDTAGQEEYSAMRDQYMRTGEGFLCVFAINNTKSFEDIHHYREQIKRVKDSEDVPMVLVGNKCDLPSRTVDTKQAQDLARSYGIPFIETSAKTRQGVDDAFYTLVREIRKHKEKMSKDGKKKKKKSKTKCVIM

| IC50 [nM] | Compound |
| --- | --- |
| 17 | C[C@@H](Oc1nc2c3cnc(c(F)c3n1)-c1c(c(Cl)cc3[nH]ncc13)CCCOC(=O)O[C@@H]1COCCN2C1)[C@@H]1CCCN1C (single isomer, unassigned) [Example 203] |
| 1270 | O=C1N[C@@H]2CCCCN(C2)c2nc(OC[C@@]34CCCN3C[C@H](F)C4)nc3c(F)c(ncc23)-c2c3c(cc4[nH]ncc24)CC[C@@H]3CCO1 (single isomer, unassigned) [Example 302] |
| 6 | CN1CCC[C@H]1COc1nc2c3cnc(c(F)c3n1)-c1c(c(Cl)cc3[nH]ncc13)CCCOC(=O)O[C@]1(C)COCCN2C1 (single isomer, unassigned) [Example 181] |
| 3 | Fc1cc2[nH]ncc2c2c1CCCCOC[C@H]1CCCCN(C1)c1nc(OC[C@@]34CCCN3C[C@H](F)C4)nc3c(F)c-2ncc13 (single isomer, unassigned) [Example 240] |
| 8 | Cc1cc2[nH]ncc2c2c1/C=C\COC(=O)O[C@@H]1CCCN(C1)c1nc(OC[C@@]34CCCN3C[C@H](F)C4)nc3c(F)c-2ncc13 (single isomer, unassigned) [Example 123] |
| 6 | Fc1cc2[nH]ncc2c2c1CCCCOC[C@@H]1CCCCN(C1)c1nc(OC[C@@]34CCCN3C[C@H](F)C4)nc3c(F)c-2ncc13 (single isomer, unassigned) [Example 239] |
| 10 | Cc1cc2[nH]ncc2c2c1CCC[C@H](F)C(=O)N(C)[C@@H]1CCCN(C1)c1nc(OC[C@@]34CCCN3C[C@H](F)C4)nc3c(F)c-2ncc13 (single isomer, unassigned) [Example 51] |
| 333 | CN1C(=O)COCC[C@@H]2CCc3cc4[nH]ncc4c(c32)-c2ncc3c(nc(OC[C@@]45CCCN4C[C@H](F)C5)nc3c2F)N2CCC[C@@H]1C2 (single isomer, unassigned) [Example 279] |
| 50000 | Cc1cc2[nH]ncc2c2c1CCCOC(=O)N[C@@]1(C)CCCCN(C1)c1nc(OC[C@@]34CCCN3C[C@H](F)C4)nc3c(F)c-2ncc13 (single isomer, unassigned) [Example 293] |
| 10 | O=C1OC[C@H]2C[C@@H]2c2c(Cl)cc3[nH]ncc3c2-c2ncc3c(nc(OC[C@@]45CCCN4C[C@H](F)C5)nc3c2F)N2CCC[C@H](C2)O1 (racemic) [Example 113] |
| 81 | CN1C(=O)OCCCc2c(Cl)cc3[nH]ncc3c2-c2ncc3c(nc(OC[C@@]45CCCN4C[C@H](F)C5)nc3c2F)N2C[C@@H](O)C[C@@H]1C2 (single isomer, unassigned) [Example 286] |
| 4 | Cc1cc2[nH]ncc2c2c1CCOC(=O)O[C@H]1C[C@]3(CCCN(C3)c3nc(OC[C@@H]4CCCN4C)nc4c(F)c-2ncc34)C1 (single isomer, unassigned) [Example 326] |
| 27 | Cc1cc2[nH]ncc2c2c1CCCCO[C@@H](C)[C@@H]1CN(CCO1)c1nc(OC[C@@]34CCCN3C[C@H](F)C4)nc3c(F)c-2ncc13 (single isomer, unassigned) [Example 244] |
| 15 | Cc1cc2[nH]ncc2c2c1C[C@H](C)COC(=O)O[C@@H]1CCCN(C1)c1nc(OC[C@@]34CCCN3C[C@H](F)C4)nc3c(F)c-2ncc13 (single isomer, unassigned) [Example 215] |
| 79 | O=C1CCCCc2c(Cl)cc3[nH]ncc3c2-c2ncc3c(nc(OC[C@@]45CCCN4C[C@H](F)C5)nc3c2F)N2CC[C@@H]3CCN1[C@@H]3C2 (single isomer, unassigned) [Example 61] |
| 34 | C[C@H](Oc1nc2c3cnc(c(F)c3n1)-c1c(c(Cl)cc3[nH]ncc13)CCCOC(=O)O[C@@H]1COCCN2C1)[C@@H]1CCCN1C (single isomer, unassigned) [Example 204] |
| 583 | Fc1c2ncc3c(nc(OC[C@@]45CCCN4C[C@H](F)C5)nc13)N1CCC[C@@H](C1)c1coc(n1)CCCc1c(Cl)cc3[nH]ncc3c1-2 (single isomer, unassigned) [Example 245] |

| IC50 [nM] | Compound |
| --- | --- |
| 1140 | Cc1cc2[nH]ncc2c2c1CCCCO[C@@H](C)[C@H]1CN(CCO1)c1nc(OC[C@@]34CCCN3C[C@H](F)C4)nc3c(F)c-2ncc13 (single isomer, unassigned) [Example 242] |
| 3 | O=C1CCCCc2c(Cl)cc3[nH]ncc3c2-c2ncc3c(nc(OC[C@@]45CCCN4C[C@H](F)C5)nc3c2F)N2CC[C@H]3CCN1[C@H]3C2 (single isomer, unassigned) [Example 62] |
| 28 | C[C@H]1CCOC[C@H]2CN(CCO2)c2nc(OC[C@@]34CCCN3C[C@H](F)C4)nc3c(F)c(ncc23)-c2c(c(Cl)cc3[nH]ncc23)C1 (single isomer, unassigned) [Example 252] |
| 4 | O=C1OCCCc2c(Cl)cc3[nH]ncc3c2-c2ncc3c(nc(OC[C@@]45CCCN4C[C@H](F)C5)nc3c2F)N2CCCC[C@](CF)(C2)O1 (single isomer, unassigned) [Example 340] |
| 8 | Cc1cc2[nH]ncc2c2c1CCCOC(=O)O[C@]1(C)COCCN(C1)c1nc(OC[C@@H]3CCCN3C)nc3c(F)c-2ncc13 (single isomer, unassigned) [Example 183] |
| 2260 | O=C1OCCCc2c(Cl)cc3[nH]ncc3c2-c2ncc3c(nc(OC[C@@]45CCCN4C[C@H](F)C5)nc3c2F)N2CCOC[C@@](CF)(C2)O1 (single isomer, unassigned) [Example 310] |
| 6 | [2H]C([2H])([2H])[C@@]12COCCN(C1)c1nc(OC[C@@]34CCCN3C[C@H](F)C4)nc3c(F)c(ncc13)-c1c(c(C)cc3[nH]ncc13)CCCOC(=O)O2 (single isomer, unassigned) [Example 352] |
| 14 | C[C@@]12CCCN(C1)c1nc(OC[C@@]34CCCN3C[C@H](F)C4)nc3c(F)c(ncc13)-c1cccc3ccc(F)c(c13)CCOC(=O)N2 (single isomer, unassigned) [Example 77] |
| 2440 | CN1CCC[C@H]1COc1nc2c3cnc(c(F)c3n1)-c1c(c(Cl)cc3[nH]ncc13)CCCOC(=O)O[C@@]1(CF)COCCN2C1 (single isomer, unassigned) [Example 337] |
| 6 | Cc1cc2[nH]ncc2c2c1CCCC(F)C(=O)N[C@@H]1CCCCN(C1)c1nc(OC[C@@]34CCCN3C[C@H](F)C4)nc3c(F)c-2ncc13 (single isomer, unassigned) [Example 159] |
| 4 | Fc1c2ncc3c(nc(OC[C@@]45CCCN4C[C@H](F)C5)nc13)N1CCCC[C@H](C1)c1cnn(n1)CCCc1c(Cl)cc3[nH]ncc3c1-2 (single isomer, unassigned) [Example 296] |
| 7 | Fc1c2ncc3c(nc(OC[C@@]45CCCN4C[C@H](F)C5)nc13)N1CCOC[C@H](C1)c1cnn(n1)CCCc1c(Cl)cc3[nH]ncc3c1-2 (single isomer, unassigned) [Example 298] |
| 68 | C[C@@]12CCCN(C1)c1nc(OC[C@@]34CCCN3C[C@H](F)C4)nc3c(F)c(ncc13)-c1cc(O)cc3c1[C@H](CCCC(=O)N2)CCC3 (single isomer, unassigned) [Example 28, 2,2,2-trifluoroacetate salt] |
| 6 | C[C@@]12COCCN(C1)c1nc(OC[C@H]3CC[C@@H]4COCCN43)nc3c(F)c(ncc13)-c1c(c(Cl)cc3[nH]ncc13)CCCOC(=O)O2 (single isomer, unassigned) [Example 308] |
| 4 | Fc1c2ncc3c(nc(OC[C@@]45CCCN4C[C@H](F)C5)nc13)N1CCOC[C@@H](COCCCCc3c(Cl)cc4[nH]ncc4c3-2)C1 (single isomer, unassigned) [Example 137] |
| 10 | C[C@@]12COCCN(C1)c1nc(OC[C@@H]3CC[C@H]4COCCN43)nc3c(F)c(ncc13)-c1c(c(Cl)cc3[nH]ncc13)CCCOC(=O)O2 (single isomer, unassigned) [Example 309] |
| 7570 | Cc1cc2[nH]ncc2c2c1CCCOC(=O)O[C@@]1(C)COCCN(C1)c1nc(OC[C@@H]3CCCN3C)nc3c(F)c-2ncc13 (single isomer, unassigned) [Example 182] |

same assay, conditions: TR-FRET; read-out: KRAS G12D Binding IC50

| IC50 [nM] | Compound |
| --- | --- |
| 27 | Fc1c2ncc3c(nc(OC[C@@]45CCCN4C[C@H](F)C5)nc13)N1CCOC[C@H](Cc3ncc(o3)CCc3c(Cl)cc4[nH]ncc4c3-2)C1 (single isomer, unassigned) [Example 375] |
| 13 | Fc1c2ncc3c(nc(OC[C@@]45CCCN4C[C@H](F)C5)nc13)N1CCC[C@H](C1)Cn1ncc(n1)[C@@H]1C[C@@H]1c1c(Cl)cc3[nH]ncc3c1-2 (relative stereo) [Example 383, (11R,13S,19R)-rel-9-chloro-32-fluoro-26-(((2.R.7aS)-2-fluorotetrahydro-1H-pyrrolo[1,2-α]pyrrol-7a(5H)-yl)methoxy)-5,6,16,17,23,25,27,31,34-nonaazaoctacyclo[26.3.1.1~14,17~1~19,23~.0~2,10~0~3,7~.0~11,13~.0~24,29~]tetratriaconta-1(32),2.4,7,9,14(34),15,24,26,28,30-undecaene] |
| 5 | Fc1c2ncc3c(nc(OC[C@@]45CCCN4C[C@H](F)C5)nc13)N1CCO[C@H](C1)c1coc(n1)CCCc1c(Cl)cc3[nH]ncc3c1-2 (single isomer, unassigned) [Example 390] |
| 1810 | Fc1c2ncc3c(nc(OC[C@@]45CCCN4C[C@H](F)C5)nc13)N1CCO[C@@H](COCC[C@H]3C[C@H]3c3c(Cl)cc4[nH]ncc4c3-2)C1 (single isomer, unassigned) [Example 393] |
| 4 | Fc1c2ncc3c(nc(OC[C@@]45CCCN4C[C@H](F)C5)nc13)N1CCCC[C@](F)(COCCCCc3c(Cl)cc4[nH]ncc4c3-2)C1 (single isomer, unassigned) [Example 398] |
| 6 | Fc1c2ncc3c(nc(OC[C@@]45CCCN4C[C@H](F)C5)nc13)N1CCO[C@@H](COCC[C@@H]3C[C@@H]3c3c(Cl)cc4[nH]ncc4c3-2)C1 (single isomer, unassigned) [Example 392] |
